In patent publication US12629350B2, “Transthyretin tetramer stabilizing agent, and preventing agent or progression suppressing agent for transthyretin amyloidosis” (KANEKA CORPORATION, priority 2020, dated 2026):

Biological target: T1, transthyretin tetramer (Homo sapiens, UniProt P02766)
T1 construct: from tissue; host or cells: human serum from three middle-aged and older persons
Assay: Stabilization Test 1 of Transthyretin Tetramer (serum, urea denaturation, electrophoresis and Western blotting)
Type: biochemical
Details: glabridin alone added at concentrations up to 50 μM
Experimental: Serums were obtained from blood taken from three middle-aged and older persons. […] The resulting mixtures were incubated at 25° C. for 30 minutes, and then denatured with urea. Using these samples, the transthyretins (the tetramers, the dimers, and the monomers) in the serum were quantitated by electrophoresis and Western blotting. The stabilization effect was investigated using the ratio of the monomers (monomer) to the total amounts of the transthyretins (total) (monomer/total) and the ratio of the tetramers (tetramer) to the total amounts of the transthyretins (total) (tetramer/total). The analysis results of the monomer/total ratio are shown in the left of FIG. 1. The analysis results of the tetramer/total ratio are shown in the right of FIG. 1.

[1] = serum of three middle-aged and older persons, 25° C. 30 minutes, then denatured with urea

## CC1(C)C=Cc2c(ccc3c2OC[C@@H](c2ccc(O)cc2O)C3)O1 [glabridin]
[1]
  ratio of the monomers to the total amounts of the transthyretins (monomer/total): did not change
  ratio of the tetramers to the total amounts of the transthyretins (tetramer/total): did not increase
serum
  stabilization effect for the transthyretin: not observed
